From BindingDB's records for doi:10.1021/acs.jmedchem.9b01226 (Purdue University, 2020)

Assays:
[1] = target: T1, Proteasome subunit beta type-8 (Homo sapiens, UniProt P28062); assay: Inhibition of immunoproteasome subunit LMP7 in human RPMI8226 cells assessed as reduction in cell viability incubated for 48 hrs by MTT assay
T1 sequence (P28062 whole entry): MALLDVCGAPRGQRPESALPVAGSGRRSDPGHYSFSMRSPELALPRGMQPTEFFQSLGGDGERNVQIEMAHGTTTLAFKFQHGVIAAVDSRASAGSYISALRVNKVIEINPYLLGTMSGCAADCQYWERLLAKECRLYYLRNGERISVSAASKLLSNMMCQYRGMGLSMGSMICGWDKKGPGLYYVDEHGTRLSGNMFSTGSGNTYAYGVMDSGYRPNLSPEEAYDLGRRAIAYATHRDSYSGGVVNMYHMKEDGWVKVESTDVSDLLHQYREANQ

[2] = target: T1, Proteasome subunit beta type-8; assay: Inhibition of immunoproteasome subunit LMP7 in human DOX40 cells assessed as reduction in cell viability incubated for 48 hrs by MTT assay
[3] = target: T1, Proteasome subunit beta type-8; assay: Inhibition of immunoproteasome subunit LMP7 in human MM.1S cells assessed as reduction in cell viability incubated for 48 hrs by MTT assay
[4] = target: T1, Proteasome subunit beta type-8; assay: Inhibition of immunoproteasome subunit LMP7 in human MM.1R cells assessed as reduction in cell viability incubated for 48 hrs by MTT assay
[5] = target: T1, Proteasome subunit beta type-8; assay: Inhibition of immunoproteasome subunit LMP7 in human INA60 cells assessed as reduction in cell viability incubated for 48 hrs by MTT assay
[6] = target: T1, Proteasome subunit beta type-8; assay: Inhibition of immunoproteasome subunit […] in human OPM1 cells assessed as reduction in cell viability incubated for 48 hrs by MTT assay
[7] = target: T1, Proteasome subunit beta type-8; assay: Inhibition of immunoproteasome subunit LMP7 in human KMS12PE cells assessed as reduction in cell viability incubated for 48 hrs by MTT assay
[8] = target: T1, Proteasome subunit beta type-8; assay: Inhibition of immunoproteasome subunit LMP7 in human OPM1 cells assessed as reduction in cell viability incubated for 48 hrs by MTT assay
[9] = target: T1, Proteasome subunit beta type-8; assay: Inhibition of immunoproteasome subunit LMP7 in human LR5 cells assessed as reduction in cell viability incubated for 48 hrs by MTT assay

Measured: IC50

CC1=C(C(=O)N[C@H](C)C(=O)N[C@@H](Cc2c[nH]c3ccccc23)C(=O)N[C@@H](Cc2ccccc2)C(=O)[C@@]2(C)CO2)Cc2ccccc21
3000 nM: all assays above
